Key:
Experiment in all cases: Test C flooded paddy test
Type in all cases: in vivo
[1] = tested on: ducksalad (Heteranthera limosa); settings: Flood; for Plant response rating (scale of 0 to 100), Ducksalad: 0 is no effect, 100 is complete control
Summary of the method: (§1)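 Compound was added directly to paddy water held 3 cm above the soil, with plants at the 2-leaf stage. Injury was scored visually versus untreated controls after 13–15 d greenhouse growth, using a 0–100 scale where 100 means complete control.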

rice (Oryza sativa) = settings: Flood; for Plant response rating (scale of 0 to 100), Rice: 0 is no effect, 100 is complete control
Summary of the method: as §1

[2] = tested on: barnyardgrass (Echinochloa crus-galli); settings: Flood; for Plant response rating (scale of 0 to 100), Barnyardgrass: 0 is no effect, 100 is complete control
Summary of the method: as §1

[3] = tested on: sedge, umbrella (small-flower umbrella sedge, Cyperus difformis); settings: Flood; for Plant response rating (scale of 0 to 100), Sedge, Umbrella: 0 is no effect, 100 is complete control
Summary of the method: as §1

[4] = 31 g ai/ha, scale 0 to 100 (0 no effect, 100 complete control), 13 to 15 d

SMILES: O=C1NCC(c2cccc(OC(F)(F)C(F)F)c2)C1C(=O)Nc1cccc(F)c1F (racemic) [Compound 697]
- Plant response rating, Ducksalad [1, 4]: 40
- Plant response rating (scale of 0 to 100), Ducksalad ([1]; 62 g ai/ha): 40
- Plant response rating (scale of 0 to 100), Ducksalad ([1]; 125 g ai/ha): 60
- Plant response rating (scale of 0 to 100), Ducksalad ([1]; 250 g ai/ha): 100
- Plant response rating, Rice (rice (Oryza sativa); [4]): 0
- Plant response rating (scale of 0 to 100), Rice (rice (Oryza sativa); 62 g ai/ha): 0
- Plant response rating (scale of 0 to 100), Rice (rice (Oryza sativa); 125 g ai/ha): 50
- Plant response rating (scale of 0 to 100), Rice (rice (Oryza sativa); 250 g ai/ha): 70
- Plant response rating, Barnyardgrass [2, 4]: 0
- Plant response rating (scale of 0 to 100), Barnyardgrass ([2]; 62 g ai/ha): 30
- Plant response rating (scale of 0 to 100), Barnyardgrass ([2]; 125 g ai/ha): 45
- Plant response rating (scale of 0 to 100), Barnyardgrass ([2]; 250 g ai/ha): 45
- Plant response rating, Sedge, Umbrella [3, 4]: 0
- Plant response rating (scale of 0 to 100), Sedge, Umbrella ([3]; 62 g ai/ha): 0
- Plant response rating (scale of 0 to 100), Sedge, Umbrella ([3]; 125 g ai/ha): 0
- Plant response rating (scale of 0 to 100), Sedge, Umbrella ([3]; 250 g ai/ha): 0

Source: patent US12077503B2, “Substituted cyclic amides and their use as herbicides” (FMC CORPORATION, priority 2015, dated 2024)
